Legend:
Assay type in all cases: cell-based, Trypanosoma brucei brucei
FT1–3 (TbFT1–3) [1] = tested on: T1, FT1–3 (TbFT1–3); assay: inhibition of [3H]folate uptake, whole cells; conditions: 2.0 μM folate ([S] ≅ Km); pH 7.3; read-out: IC50 against folate
T1 construct: native transporters in intact bloodstream-form trypanosomes; 12 predicted transmembrane helices; uptake assigned by RNAi knockdown of all three
Text: inhibition of [3H]folate uptake, whole cells on FT1–3 (TbFT1–3)

FT1–3 (TbFT1–3) [2] = tested on: T1, FT1–3 (TbFT1–3); assay: inhibition of [3H]MTX uptake, whole cells; conditions: 13 μM MTX ([S] ≅ Km); pH 7.3; read-out: IC50 against MTX
Text: inhibition of [3H]MTX uptake, whole cells on FT1–3 (TbFT1–3)

FT1–3 (TbFT1–3) [3] = tested on: T1, FT1–3 (TbFT1–3); assay: [3H]folic acid uptake, whole cells; conditions: transport, 23 °C, pH 7.3; labelled compound
Text: [3H]folic acid uptake, whole cells on FT1–3 (TbFT1–3) | Uptake rates for folate obeyed simple Michaelis-Menten kinetics (Fig. 2D) yielding a Km of […]

FT1–3 (TbFT1–3) [4] = tested on: T1, FT1–3 (TbFT1–3); assay: inhibition of [3H]MTX uptake, whole cells, Lineweaver-Burk / global fit; conditions: competitive with MTX; folate 0, 0.5, 1 μM; pH 7.3
FT1–3 (TbFT1–3) [5] = tested on: T1, FT1–3 (TbFT1–3); assay: inhibition of [3H]folate uptake, whole cells, Lineweaver-Burk / global fit; conditions: competitive with folate; MTX 0, 0.5, 1 μM; pH 7.3
FT1–3 (TbFT1–3) [6] = tested on: T1, FT1–3 (TbFT1–3); assay: [3H]MTX uptake, whole cells; conditions: transport, 23 °C, pH 7.3; labelled compound

Row | Structure (SMILES) | IC50 (FT1–3 (TbFT1–3) [1]) [nM] | also measured
1 | CN1c2c(nc(N)[nH]c2=O)NC[C@@H]1CNc1ccc(C(=O)N[C@@H](CCC(=O)O)C(=O)O)cc1 [5-methyl-THF] | 6300 ± 1000 | 
2 | Nc1nc2ncc(CNc3ccc(C(=O)N[C@@H](CCC(=O)O)C(=O)O)cc3)nc2c(=O)[nH]1 [folate] |  | IC50 (FT1–3 (TbFT1–3) [2]): 1900 ± 400 nM; Km (FT1–3 (TbFT1–3) [3]): 2.04 ± 0.53 µM; Ki (FT1–3 (TbFT1–3) [4]): 940 ± 210 nM
3 | CN(Cc1cnc2nc(N)nc(N)c2n1)c1ccc(C(=O)N[C@@H](CCC(=O)O)C(=O)O)cc1 [methotrexate] | 3400 ± 400 | Ki (FT1–3 (TbFT1–3) [5]): 480 ± 70 nM; Km (FT1–3 (TbFT1–3) [6]): 18.4 ± 2.2 µM
4 | Nc1ccc(C(=O)N[C@@H](CCC(=O)O)C(=O)O)cc1 [pABA-Glu] | 30800 ± 3700 | 
5 | Nc1nc(=O)c2c(CCc3ccc(C(=O)N[C@@H](CCC(=O)O)C(=O)O)cc3)c[nH]c2[nH]1 [pemetrexed] | 3200 ± 300 | 
6 | Cc1nc2ccc(CN(C)c3ccc(C(=O)N[C@@H](CCC(=O)O)C(=O)O)s3)cc2c(=O)[nH]1 [raltitrexed] | 1800 ± 400 | 

From PMC5114424, “The Role of Folate Transport in Antifolate Drug Action in Trypanosoma brucei” (The Journal of Biological Chemistry, 2016)
